Laboratory results published in PMC10041525, “New Dual Inhibitors of Bacterial Topoisomerases with Broad-Spectrum Antibacterial Activity and In Vivo Efficacy against Vancomycin-Intermediate Staphylococcus aureus” (Journal of Medicinal Chemistry, 2023).
Where two headings read alike, the source gives them in different places.

Key:
A. baumannii ATCC 17978 = experiment: MIC broth microdilution (CLSI); type: cell-based; conditions: Acinetobacter baumannii, ATCC17978
Description: (§1) Cation-adjusted Mueller Hinton broth 2 (MHBII) was used for bacterial growth under standard laboratory conditions and for antimicrobial susceptibility tests. MHBII broth was prepared by dissolving 22 g of MHBII powder [containing beef extract (3 g), acid hydrolysate of casein (17.5 g), and starch (1.5 g); Becton Dickinson and Co.] in 1 L of water. To prepare MHBII agar, 14 g of agar (Bacto; Molar Chemicals) was added to 1 L of broth.
(§2) Bacterial strains were inoculated onto MHBII agar plates and grown overnight at 37 °C. Next, three individual colonies from each strain were inoculated into 1 mL of MHBII medium and propagated at 37 °C overnight, with agitation at 250 rpm. For Enterococcus sp., the cells were plated in brain–heart infusion [(BHI) medium] agar plates, and BHI broth was used to determine the MICs. […] Following the dilutions, each well was seeded with 5 × 10^4 bacterial cells (in 100 μL final volume). Each measurement was performed in three parallel replicates, and to avoid possible edge effects in the microwell plates, the outside rows (A, H) were filled with sterile medium. Following the inoculations, the plates were covered with the lids and wrapped in polyethylene plastic bags, to minimize evaporation but to allow O2 transfer. […] After incubation, the OD600 of each well was measured using a microplate reader (Synergy 2; Biotek).

S. aureus ATCC 29213 = experiment: MIC broth microdilution (CLSI); type: cell-based; conditions: Staphylococcus aureus, ATCC29213
Description: as §1, §2

[1] = system: Enterococcus faecalis ATCC 29212; experiment: MIC broth microdilution (CLSI); type: cell-based, E. faecalis
Description: as §1, with “MICs (Tables 1 and S1–S3) were determined with a standard serial broth microdilution technique according to Clinical and Laboratory Standards Institute (CLSI) guidelines.[45] Cation-adjusted” for “Cation-adjusted”
(§3) Bacterial strains were inoculated onto MHBII agar plates and grown overnight at 37 °C. Next, three individual colonies from each strain were inoculated into 1 mL of MHBII medium and propagated at 37 °C overnight, with agitation at 250 rpm. For Enterococcus sp., the cells were plated in brain–heart infusion [(BHI) medium] agar plates, and BHI broth was used to determine the MICs. […] The highest final DMSO concentration in the experiments was 0.64% (in the case of the 64 μg/mL concentration of the inhibitor). Following the dilutions, each well was seeded with 5 × 10^4 bacterial cells (in 100 μL final volume). Each measurement was performed in three parallel replicates, and to avoid possible edge effects in the microwell plates, the outside rows (A, H) were filled with sterile medium. Following the inoculations, the plates were covered with the lids and wrapped in polyethylene plastic bags, to minimize evaporation but to allow O2 transfer. The plates were incubated at 37 °C under continuous shaking at 150 rpm for 18 h. After incubation, the OD600 of each well was measured using a microplate reader (Synergy 2; Biotek). The MICs were defined as the antibiotic concentrations which inhibited the growth of the bacterial cultures; that is, the drug concentration where the average OD600 increment of the three technical replicates was below 1.5-fold the background OD increment.

E. coli ATCC 25922 = experiment: MIC broth microdilution (CLSI); type: cell-based; conditions: Escherichia coli, ATCC25922
Description: as §1, with “MICs (Tables 1 and S1–S3) were determined with a standard serial broth microdilution technique according to Clinical and Laboratory Standards Institute (CLSI) guidelines.[45] Cation-adjusted” for “Cation-adjusted”
as §3

E. faecium ATCC 700221 = experiment: MIC broth microdilution (CLSI); type: cell-based; conditions: Enterococcus faecium, ATCC700221
Description: as §1, with “MICs (Tables 1 and S1–S3) were determined with a standard serial broth microdilution technique according to Clinical and Laboratory Standards Institute (CLSI) guidelines.[45] Cation-adjusted” for “Cation-adjusted”
as §3

[2] = system: Enterobacter cloacae spp. cloacae ATCC 13047; experiment: MIC broth microdilution (CLSI); type: cell-based
Description: as §1, with “MICs (Tables 1 and S1–S3) were determined with a standard serial broth microdilution technique according to Clinical and Laboratory Standards Institute (CLSI) guidelines.[45] Cation-adjusted” for “Cation-adjusted”
as §3

K. pneumoniae ATCC 10031 = experiment: MIC broth microdilution (CLSI); type: cell-based; conditions: Klebsiella pneumoniae, ATCC10031
Description: as §1, with “MICs (Tables 1 and S1–S3) were determined with a standard serial broth microdilution technique according to Clinical and Laboratory Standards Institute (CLSI) guidelines.[45] Cation-adjusted” for “Cation-adjusted”
as §3

P. aeruginosa ATCC 27853 = experiment: MIC broth microdilution (CLSI); type: cell-based; conditions: Pseudomonas aeruginosa, ATCC27853
Description: as §1, with “MICs (Tables 1 and S1–S3) were determined with a standard serial broth microdilution technique according to Clinical and Laboratory Standards Institute (CLSI) guidelines.[45] Cation-adjusted” for “Cation-adjusted”
as §3

[3] = system: S. aureus (MRSA) ATCC 43300; experiment: MIC broth microdilution (CLSI); type: cell-based; conditions: Staphylococcus aureus
Description: as §1, with “MICs (Tables 1 and S1–S3) were determined with a standard serial broth microdilution technique according to Clinical and Laboratory Standards Institute (CLSI) guidelines.[45] Cation-adjusted” for “Cation-adjusted”
as §3

[4] = system: S. aureus (VISA) ATCC 700699; experiment: MIC broth microdilution (CLSI); type: cell-based
Description: as §1, with “MICs (Tables 1 and S1–S3) were determined with a standard serial broth microdilution technique according to Clinical and Laboratory Standards Institute (CLSI) guidelines.[45] Cation-adjusted” for “Cation-adjusted”
as §3

in vitro = in vitro ADME, mouse; conditions: male, CD-1, mouse; for fraction unbound at 4 h, 5 μM: plasma (pooled)
Description: The PPB studies were performed by Selvita d.o.o. (Zagreb, Croatia) in mouse plasma (CD-1 male, pooled, commercially obtained from BioIVT) via equilibrium dialysis. Compounds were assayed at 5 μM (0.5% DMSO) in two replicates, and incubation time was 4 h at 37 °C. Samples were taken at 0 min and 4 h. Aliquots from both buffer and plasma compartment matrix were matched and mixed with 6 volumes of STOP solution (acetonitrile/methanol (2:1) + internal standard – diclofenac) and analyzed by LC–MS/MS. Assay controls were caffeine (low), verapamil (moderate binding), and nicardipine (very high binding), and protein contamination was checked.

DNA gyrase from E. coli = biological target: T1, DNA gyrase from E. coli (Escherichia coli, UniProt P0AES6); experiment: supercoiling HTS plate assay; type: biochemical; conditions: IC50 [nM] E. coli DNA gyrase
T1 construct: purchased Inspiralis
Description: (§4) All compounds were tested for their inhibitory activities against DNA gyrase and topo IV from E. coli in supercoiling and relaxation high-throughput plate assays, respectively. Our new series of inhibitors were then tested against a panel of Gram-positive and Gram-negative bacteria.
(§5) Seven concentrations of the inhibitors were used to determine IC50 values which were then calculated with GraphPad Prism 6.0 software. Three independent measurements were performed to determine IC50 values, and mean values are reported as the final result.

topo IV from E. coli = biological target: T2, topo IV from E. coli (Escherichia coli, UniProt P20083); experiment: relaxation HTS plate assay; type: biochemical; conditions: IC50 [nM] E. coli TopoIV
T2 construct: purchased Inspiralis
Description: as §4, §5

A. baumannii ATCC 19606 = experiment: MIC broth microdilution (CLSI); type: cell-based; conditions: Acinetobacter baumannii, ATCC19606
Description: as §1, with “MICs (Tables 1 and S1–S3) were determined with a standard serial broth microdilution technique according to Clinical and Laboratory Standards Institute (CLSI) guidelines.[45] Cation-adjusted” for “Cation-adjusted”
as §3
(§6) cMIC, minimum inhibitory concentration
(§7) Bacterial strains that were used: S. aureus ATCC 29213, S. aureus (MRSA) ATCC 43300, S. aureus (VISA) ATCC 700699, E. faecalis ATCC 29212, E. faecium ATCC 700221,
(§8) E. coli ATCC 25922, P. aeruginosa ATCC 27853 (PAO1 for compounds 7l, 8b, 14), A. baumannii ATCC 17978 (ATCC 19606 for compounds 7l, 8b, 14), K. pneumoniae ATCC
(§9) Measurements were performed according to the Clinical and Laboratory Standards Institute guidelines, with three independent measurements.

K. pneumoniae ATCC 13883 = experiment: MIC broth microdilution (CLSI); type: cell-based; conditions: Klebsiella pneumoniae, ATCC13883; ATCC 13883 used for 7l, 8b, 14, 16b, 16c
Description: as §1, with “MICs (Tables 1 and S1–S3) were determined with a standard serial broth microdilution technique according to Clinical and Laboratory Standards Institute (CLSI) guidelines.[45] Cation-adjusted” for “Cation-adjusted”
as §3, §6, §7, §8, §9

P. aeruginosa PAO1 = experiment: MIC broth microdilution (CLSI); type: cell-based; conditions: Pseudomonas aeruginosa; PAO1 used for 7l, 8b, 14, 16b, 16c
Description: as §1, with “MICs (Tables 1 and S1–S3) were determined with a standard serial broth microdilution technique according to Clinical and Laboratory Standards Institute (CLSI) guidelines.[45] Cation-adjusted” for “Cation-adjusted”
as §3, §6, §7, §8, §9

[5] = read-out: MIC [µg/mL](S. aureus ATCC 29213)
[6] = ATCC 19606 used for 7l, 8b, 14, 16b, 16c, read-out: MIC
[7] = read-out: MIC [µg/mL] (A. baumannii ATCC 19606 for compounds 7l, 8b, 14)

T2 sequence (P0AFI2 whole entry): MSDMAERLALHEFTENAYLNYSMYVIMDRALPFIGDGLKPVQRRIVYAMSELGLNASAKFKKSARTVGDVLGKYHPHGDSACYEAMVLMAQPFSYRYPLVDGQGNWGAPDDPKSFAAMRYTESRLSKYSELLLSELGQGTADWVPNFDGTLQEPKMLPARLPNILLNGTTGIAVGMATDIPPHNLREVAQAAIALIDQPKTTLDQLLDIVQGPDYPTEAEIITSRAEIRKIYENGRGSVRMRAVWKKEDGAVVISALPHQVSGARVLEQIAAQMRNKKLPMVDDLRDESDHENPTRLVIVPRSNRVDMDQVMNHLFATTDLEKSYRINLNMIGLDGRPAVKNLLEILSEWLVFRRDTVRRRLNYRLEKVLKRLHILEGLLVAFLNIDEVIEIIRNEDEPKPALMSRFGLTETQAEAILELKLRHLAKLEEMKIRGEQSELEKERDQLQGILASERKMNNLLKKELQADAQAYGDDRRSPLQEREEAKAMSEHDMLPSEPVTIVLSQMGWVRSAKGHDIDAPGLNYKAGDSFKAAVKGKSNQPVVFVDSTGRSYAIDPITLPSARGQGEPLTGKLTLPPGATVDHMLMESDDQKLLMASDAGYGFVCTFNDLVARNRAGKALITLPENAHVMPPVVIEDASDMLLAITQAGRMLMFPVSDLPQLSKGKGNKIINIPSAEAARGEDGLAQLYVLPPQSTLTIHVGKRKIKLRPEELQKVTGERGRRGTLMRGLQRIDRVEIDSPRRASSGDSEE
T2 sequence (P20083 whole entry): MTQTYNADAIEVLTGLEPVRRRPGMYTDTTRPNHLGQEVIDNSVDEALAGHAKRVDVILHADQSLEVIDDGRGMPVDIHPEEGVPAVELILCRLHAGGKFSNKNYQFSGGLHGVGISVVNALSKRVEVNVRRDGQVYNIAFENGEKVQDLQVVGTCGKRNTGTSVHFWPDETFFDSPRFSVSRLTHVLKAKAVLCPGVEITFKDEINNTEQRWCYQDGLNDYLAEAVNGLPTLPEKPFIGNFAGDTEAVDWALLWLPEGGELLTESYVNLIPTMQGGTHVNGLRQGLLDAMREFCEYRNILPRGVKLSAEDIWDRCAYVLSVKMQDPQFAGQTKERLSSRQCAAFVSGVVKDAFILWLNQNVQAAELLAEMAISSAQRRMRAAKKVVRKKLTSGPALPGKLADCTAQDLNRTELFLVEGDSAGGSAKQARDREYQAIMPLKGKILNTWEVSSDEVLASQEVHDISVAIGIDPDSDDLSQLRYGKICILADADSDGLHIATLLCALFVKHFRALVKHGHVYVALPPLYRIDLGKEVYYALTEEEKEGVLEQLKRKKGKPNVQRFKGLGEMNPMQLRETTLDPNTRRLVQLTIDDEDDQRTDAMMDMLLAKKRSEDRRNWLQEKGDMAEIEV

Cc1[nH]c(C(=O)Nc2nc3c(OCc4ccccc4)cc(C(=O)O)cc3s2)c(Cl)c1Cl [E]
MIC (A. baumannii ATCC 17978): 2 µg/mL
MIC (S. aureus ATCC 29213): 0.5 µg/mL
MIC [1]: <0.03125 µg/mL
MIC ([1]; Enterococcus faecalis, ATCC29212): < 0.0312 µg/mL
MIC (E. coli ATCC 25922): 16 µg/mL
MIC (E. faecium ATCC 700221): 0.0625 µg/mL
MIC [2]: >64 µg/mL
MIC ([2]; Enterobacter cloacae, ATCC13047): > 64 µg/mL
MIC (K. pneumoniae ATCC 10031): 4 µg/mL
MIC (P. aeruginosa ATCC 27853): 2 µg/mL
MIC [3]: 0.0625 µg/mL
MIC [4]: <0.03125 µg/mL
MIC ([4]; Staphylococcus aureus): < 0.0312 µg/mL
fraction unbound at 4 h, 5 μM (in vitro; mouse plasma, 5 µM, 4 h, read-out: fu, fraction unbound): < 0.001
fraction unbound at 4 h, 5 μM (in vitro; read-out: plasma protein binding (PPB)): < 0.01
recovery at 4 h, 5 μM (in vitro; plasma protein binding assay): 94.1%

Cc1[nH]c(C(=O)Nc2nc3c(N4CC[C@H](N(C)C)C4)cc(C(=O)O)cc3s2)c(Cl)c1Cl.Cl.N [7l, (S)-2-(3,4-Dichloro-5-methyl-1H-pyrrole-2-carboxamido)-4-(3-(dimethylamino)pyrrolidin-1-yl)benzo[d]thiazole-6-carboxylic Acid]
IC50 (DNA gyrase from E. coli): < 10 nM
IC50 (topo IV from E. coli): 210 ± 80 nM
MIC (S. aureus ATCC 29213; read-out: MIC): 4 µg/mL
MIC (S. aureus ATCC 29213; [5]): 4 µg/mL
MIC ([1]; Enterococcus faecalis, ATCC29212, read-out: MIC): 1 µg/mL
MIC (E. coli ATCC 25922; read-out: MIC): > 64 µg/mL
MIC (E. faecium ATCC 700221; read-out: MIC): 0.25 µg/mL
MIC ([3]; read-out: MIC): 2 µg/mL
MIC ([3]; read-out: MIC [µg/mL](S. aureus MRSA ATCC4330)): 2 µg/mL
MIC ([4]; Staphylococcus aureus, read-out: MIC): 0.5 µg/mL
MIC (A. baumannii ATCC 19606; [6]): > 64 µg/mL
MIC (A. baumannii ATCC 19606; [7]): > 64 µg/mL
MIC (K. pneumoniae ATCC 13883): > 64 µg/mL
MIC (P. aeruginosa PAO1): > 64 µg/mL

Cc1[nH]c(C(=O)Nc2nc3c(CN4CCOCC4)cc(C(=O)O)cc3s2)c(Cl)c1Cl.Cl [compound 14, 4-((6-Carboxy-2-(3,4-dichloro-5-methyl-1H-pyrrole-2-carboxamido)benzo[d]thiazol-4-yl)methyl)morpholin-4-ium Chloride]
IC50 (DNA gyrase from E. coli): 13 ± 5 nM
IC50 (topo IV from E. coli): 460 ± 120 nM
MIC (S. aureus ATCC 29213; read-out: MIC): 16 µg/mL
MIC (S. aureus ATCC 29213; [5]): 16 µg/mL
MIC (E. coli ATCC 25922; read-out: MIC): > 64 µg/mL
MIC (A. baumannii ATCC 19606; [6]): > 64 µg/mL
MIC (A. baumannii ATCC 19606; [7]): > 64 µg/mL
MIC (K. pneumoniae ATCC 13883): 64 µg/mL
MIC (P. aeruginosa PAO1): > 64 µg/mL
